Data from ChEMBL document CHEMBL5137082, “Discovery of a Novel Vascular Disrupting Agent Inhibiting Tubulin Polymerization and HDACs with Potent Antitumor Effects” (J Med Chem, 2022).
The source made the active and inactive calls. The calls are words filed in the database; no cut-off is given here.

Tests used:
K562 = assay: cells; type: functional, cell-based; conditions: Homo sapiens, K562, 72 h
Description: Antiproliferative activity against human K562 cells assessed as inhibition of cell growth measured after 72 hrs by MTT assay

HepG2 [1] = assay: Antiproliferative activity against human HepG2 cells assessed as inhibition of cell growth measured after 72 hrs by MTT assay; type: functional, cell-based; conditions: HepG2, 72 h
MCF7 = assay: Antiproliferative activity against human MCF7 cells assessed as inhibition of cell growth measured after 72 hrs by MTT assay; type: functional, cell-based; conditions: MCF7, 72 h
[2] = Antiproliferative activity against human HFL1 cells assessed as inhibition of cell growth measured after 72 hrs by MTT assay; type: toxicity, cell-based
Histone deacetylase 3 = Histone deacetylase 3 (Homo sapiens, UniProt O15379); assay: Inhibition of HDAC3 in human HeLa cells using BOC-K(Ac)-AMC as substrate measured after 30 mins by fluorescence based microtiter plate reader assay; type: cell-based
Histone deacetylase 8 = target: T1, Histone deacetylase 8 (Homo sapiens, UniProt Q9BY41); assay: Inhibition of HDAC8 in human HeLa cells using BOC-K(Ac)-AMC as substrate measured after 30 mins by fluorescence based microtiter plate reader assay; type: cell-based
T1 sequence (Q9BY41 whole entry): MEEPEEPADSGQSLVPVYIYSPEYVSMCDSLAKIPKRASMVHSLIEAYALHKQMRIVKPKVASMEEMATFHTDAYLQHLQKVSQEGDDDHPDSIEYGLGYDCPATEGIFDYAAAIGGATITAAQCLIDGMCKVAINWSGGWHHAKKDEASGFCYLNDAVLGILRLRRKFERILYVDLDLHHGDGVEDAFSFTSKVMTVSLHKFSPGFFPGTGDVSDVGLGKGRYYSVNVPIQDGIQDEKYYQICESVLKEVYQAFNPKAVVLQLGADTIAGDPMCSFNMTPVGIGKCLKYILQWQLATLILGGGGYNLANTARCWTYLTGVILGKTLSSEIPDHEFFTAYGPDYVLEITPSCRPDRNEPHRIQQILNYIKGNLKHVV

HepG2 [3] = assay: Induction of cell cycle arrest in human HepG2 cells assessed as accumulation S phase at 7.5 nM incubated for 48 hrs by propidium iodide staining based flow cytometry analysis (reference value: 17.14 +/- 0.34%); type: functional
HepG2 [4] = assay: Induction of cell cycle arrest in human HepG2 cells assessed as accumulation G2 phase at 7.5 nM incubated for 48 hrs by propidium iodide staining based flow cytometry analysis (reference value: 23.55 +/- 0.29%); type: functional
HepG2 [5] = assay: Induction of cell cycle arrest in human HepG2 cells assessed as accumulation G1 phase at 15 nM incubated for 48 hrs by propidium iodide staining based flow cytometry analysis (reference value: 59.32 +/- 0.77%); type: functional
HepG2 [6] = assay: Induction of cell cycle arrest in human HepG2 cells assessed as accumulation S phase at 15 nM incubated for 48 hrs by propidium iodide staining based flow cytometry analysis (reference value: 17.14 +/- 0.34%); type: functional
HepG2 [7] = assay: Induction of G2/M phase cell cycle arrest in human HepG2 cells assessed as decrease in Cdc2 protein expression at 7.5 to 30 nM measured after 24 hrs by western blot analysis; type: functional, cell-based; conditions: dose 7.5-30 nM
HepG2 [8] = assay: Induction of apoptosis in human HepG2 cells assessed as necrotic cells at 15 nM incubated for 48 hrs by Annexin-V/PI-staining based flow cytometry (reference value: 1.43 +/- 0.26%); type: functional
HepG2 [9] = assay: Induction of apoptosis in human HepG2 cells assessed as viable cells at 15 nM incubated for 48 hrs by Annexin-V/PI-staining based flow cytometry (reference value: 91.44 +/- 0.74%); type: functional; conditions: read-out: Activity
HepG2 [10] = assay: Induction of apoptosis in human HepG2 cells assessed as necrotic cells at 30 nM incubated for 48 hrs by Annexin-V/PI-staining based flow cytometry (reference value: 1.43 +/- 0.26%); type: functional
HepG2 [11] = assay: Induction of apoptosis in human HepG2 cells assessed as downregulation of Bcl-xL protein expression measured after 24 hrs by Western blot analysis; type: functional, cell-based; conditions: dose 7.5-30 nM, DDE = dose-dependent effect
PC-3 [12] = assay: Induction of apoptosis in human PC-3 cells assessed as mitochondrial membrane potential loss by measuring decrease in red fluorescence at 15 nM incubated for 48 hrs by JC1 staining based flow cytometry analysis (reference value: 93.48 +/- 0.15%); type: functional; design: scale not given: the % may be the effect or the level left
PC-3 [13] = assay: Induction of apoptosis in human PC-3 cells assessed as mitochondrial membrane potential loss by measuring early apoptotic cells at 15 nM incubated for 48 hrs by JC1 staining based flow cytometry analysis (reference value: 6.50 +/- 0.17%); type: functional
HepG2 [14] = assay: Induction of ROS generation in human HepG2 cells assessed as increase in ROS level at 30 nM incubated for 48 hrs by DCF-DA staining-based flow cytometry analysis (reference value: 3.73%); type: functional
MDA-MB-231 [15] = assay: Inhibition of cell migration in human MDA-MB-231 cells measured after 48 hrs by crystal violet staining based transwell assay; type: functional; conditions: dose 7.5-30 nM, DDE = dose-dependent effect
MDA-MB-231 [16] = assay: Inhibition of cell invasion in human MDA-MB-231 cells measured after 48 hrs by crystal violet staining based transwell assay; type: functional; conditions: dose 7.5-30 nM, DDE = dose-dependent effect
HUVEC = assay: Antivascular activity against HUVEC cells assessed as inhibition of capillary-like tubule formation at 30 nM measured after 6 hrs by inverted microscopy; type: functional, cell-based; conditions: Homo sapiens
[17] = Metabolic stability in mouse plasma assessed as half life at 40 uM measured upto 5 hrs by LC-MS/MS analysis; type: ADME, cell-free
[18] = Metabolic stability in mouse liver microsomes assessed as half life at 1 uM in presence of NADPH measured up to 60 mins by LC-MS/MS analysis; type: ADME, Microsome
[19] = Metabolic stability in mouse liver microsomes assessed as intrinsic clearance at 1 uM in presence of NADPH measured per gram protein up to 60 mins by LC-MS/MS analysis; type: ADME, Microsome; conditions: 1 h
[20] = Metabolic stability in mouse assessed as hepatic clearance; type: ADME; conditions: 1 h, 1 µM, time < 60 min
[21] = Metabolic stability in mouse liver microsomes assessed as metabolic bioavailability at 1 uM in presence of NADPH measured up to 60 mins by LC-MS/MS analysis; type: ADME, Microsome
H22 [22] = assay: Antivascular activity against mouse H22 cells allografted in ICR mouse assessed as reduction in tumor microvessel density by measuring CD31-positive cells at 20 mg/kg, iv administered qd measured after 21 days by immunohistochemistry analysis; type: functional, organism-based; conditions: time 21.0 day
H22 [23] = assay: Antivascular activity against mouse H22 cells allografted in ICR mouse assessed as inhibition of blood vessel formation at 20 mg/kg, iv administered qd measured after 21 days by immunohistochemistry analysis; type: functional, organism-based; conditions: time 21.0 day
[24] = Induction of apoptosis in ICR mouse cardiac tissue at 20 mg/kg, iv administered qd measured after 21 days by TUNEL assay; type: toxicity, organism-based; conditions: in vivo, 504 h, time 21 day
[25] = Toxicity in ICR mouse allografted with mouse H22 cells assessed as diastolic blood pressure at 20 mg/kg, iv administered qd measured after 21 days; type: organism-based; conditions: in vivo, 504 h, time 21 day
[26] = Toxicity in ICR mouse allografted with mouse H22 cells assessed as systolic blood pressure at 20 mg/kg, iv administered qd measured after 21 days; type: organism-based; conditions: in vivo, 504 h, time 21 day
[27] = Toxicity in ICR mouse allografted with mouse H22 cells assessed as change in heart rate at 20 mg/kg, iv administered qd measured after 21 days; type: organism-based; conditions: in vivo, 504 h, time 21 day

Sequence of Histone deacetylase 3 (O15379 whole entry): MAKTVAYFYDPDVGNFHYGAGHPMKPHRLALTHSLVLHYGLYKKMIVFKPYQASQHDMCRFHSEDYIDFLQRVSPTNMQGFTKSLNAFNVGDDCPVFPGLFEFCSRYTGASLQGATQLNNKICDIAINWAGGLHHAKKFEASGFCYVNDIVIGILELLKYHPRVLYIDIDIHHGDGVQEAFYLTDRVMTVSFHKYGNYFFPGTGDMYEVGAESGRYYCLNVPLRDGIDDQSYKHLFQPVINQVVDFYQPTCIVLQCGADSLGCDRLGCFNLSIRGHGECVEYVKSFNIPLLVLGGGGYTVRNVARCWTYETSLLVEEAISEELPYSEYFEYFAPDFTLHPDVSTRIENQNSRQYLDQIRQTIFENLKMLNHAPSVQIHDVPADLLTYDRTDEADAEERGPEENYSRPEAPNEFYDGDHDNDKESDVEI

For `COc1ccc(CNC(=O)c2cc(F)ccc2N2CCOCC2)cc1/C=C/C(=O)NO`, the IC50 (K562) was 0.018 µM, the IC50 (HepG2 [1]) was 0.029 µM and the IC50 (MCF7) was 0.027 µM. For the same molecule, the IC50 at 72 h [2] was 0.013 µM, the IC50 (Histone deacetylase 3) was 0.242 µM and the IC50 (Histone deacetylase 8) was 2.12 µM. The Activity (HepG2 [3]) was 20.81%, the Activity (HepG2 [4]) was 24.42% and the Activity (HepG2 [5]) was 49.96%. For the same molecule, the Activity (HepG2 [6]) was 23.06%, the Activity (HepG2 [7]) was “Active” and the Activity (HepG2 [8]) was 1.13%. For the same molecule, the viability at 0.015 µM (HepG2 [9]) was 65.7%, the Activity (HepG2 [10]) was 2.85% and the Activity (HepG2 [11]) was “Dde”. It also gave an Activity (PC-3 [12]) of 61.56%, an Activity (PC-3 [13]) of 35.4% and an Activity (HepG2 [14]) of 46.69%. The inhibition (MDA-MB-231 [15]) was “Dde”, the inhibition (MDA-MB-231 [16]) was “Dde” and the Activity (HUVEC) was “Active”. It also gave a half-life at 40 µM [17] of 2.1 h, a half-life at 1 µM [18] of 0.838 h and a CLH [19] of 41.7 mL/min/g. The CLH [20] was 1.45 mL/min, the Fh at 1 h, 1 µM [21] was 51.6% and the Activity (H22 [22]) was “Active”. For the same molecule, the Activity (H22 [23]) was “Active”, the Activity [24] was “Non-Toxic” and the Activity [25] was “Non-Toxic”. For the same molecule, the Activity [26] was “Non-Toxic” and the Activity [27] was “Non-Toxic”.
